Among the test systems are A549 NSCLC; EKVX NSCLC; HS 578T breast; M14 melanoma; MOLT-4 leukemia; NCI-H522 lung; OVCAR-4 ovarian; OVCAR-8 ovarian; SK-MEL-2 melanoma; SK-OV-3 ovarian.
What all share (test): NCI anticancer screen, dose series, 48 h

Molecules are shown by their SMILES.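 These data come from cells grown in 96-well plates and exposed to compound for 48 hours at five concentrations. Abbreviation: GI50, concentration required for 50% inhibition of growth. TGI denotes the concentration required for complete inhibition of growth.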

In the case of `COc1ccc(/C=C/NC=O)cc1`, the TGI in the experiment on A549 NSCLC, in the experiment with EKVX NSCLC, with HS 578T breast, in the experiment with M14 melanoma, in the experiment on MOLT-4 leukemia and in the experiment on NCI-H522 lung was more than 100 µM each time. Further, the TGI in the experiment with OVCAR-4 ovarian, with OVCAR-8 ovarian, in the experiment with SK-MEL-2 melanoma and with SK-OV-3 ovarian was more than 100 µM each time.
Take `C=CC1=C(C)C2=NC1=CC1=NC(=CC3=C(C)C4=C(O)C(C(=O)OC)C(=C5NC(=C2)C(C)C5CCC(=O)OC)C4=N3)C(CC)=C1C` (stereo not given): the TGI with A549 NSCLC, in the experiment with EKVX NSCLC, with HS 578T breast, with M14 melanoma, with NCI-H522 lung and in the experiment with OVCAR-4 ovarian was more than 100 µM in each case. For the same compound, the TGI with OVCAR-8 ovarian, with SK-MEL-2 melanoma and with SK-OV-3 ovarian was more than 100 µM in each case.
As to `C[C@H](N)C(=O)N1C[C@H](CCCB(O)O)[C@](N)(C(=O)O)C1`, the GI50 in the experiment with A549 NSCLC, in the experiment with EKVX NSCLC, with HS 578T breast, with M14 melanoma, with MOLT-4 leukemia and with NCI-H522 lung was more than 100 µM each time. The GI50 with OVCAR-8 ovarian, in the experiment with SK-MEL-2 melanoma and in the experiment on SK-OV-3 ovarian was more than 100 µM each time. The TGI with A549 NSCLC, in the experiment with EKVX NSCLC, in the experiment on HS 578T breast, with M14 melanoma, in the experiment on MOLT-4 leukemia and in the experiment on NCI-H522 lung was more than 100 µM throughout. Besides, the TGI in the experiment with OVCAR-8 ovarian, in the experiment with SK-MEL-2 melanoma and in the experiment with SK-OV-3 ovarian was more than 100 µM throughout.
As for `COc1ccc(N(C)c2c3ccccc3nc3[nH]c4ccccc4c23)cc1`, the GI50 was 0.724 µM with A549 NSCLC; 1.06 µM in the experiment on EKVX NSCLC; 2.55 µM in the experiment on HS 578T breast; 0.837 µM with M14 melanoma; 0.0883 µM with MOLT-4 leukemia; 4.98 µM in the experiment with NCI-H522 lung. Also, the GI50 with OVCAR-8 ovarian was 0.798 µM; in the experiment with SK-MEL-2 melanoma, 6.16 µM; in the experiment on SK-OV-3 ovarian, 0.778 µM. Moreover, the TGI with A549 NSCLC amounted to 9.19 µM; in the experiment on EKVX NSCLC it was 4.12 µM; in the experiment with HS 578T breast it was 11 µM; in the experiment with M14 melanoma, 1.67 µM; in the experiment with MOLT-4 leukemia it was 50 µM; with NCI-H522 lung it was 9.55 µM. The TGI in the experiment with OVCAR-8 ovarian was 7.42 µM; in the experiment with SK-MEL-2 melanoma, 26.1 µM; with SK-OV-3 ovarian, 4.52 µM.
`COc1ccc2c(c1)/C(=N/OC(C)=O)c1c-2c(=O)[nH]c2ccccc12`: the GI50 in the experiment on A549 NSCLC is 15.8 µM; in the experiment on EKVX NSCLC, 6.38 µM; with HS 578T breast, 8.88 µM; in the experiment with M14 melanoma, 13.2 µM; in the experiment with MOLT-4 leukemia, 4.28 µM; with NCI-H522 lung, 13.5 µM. Moreover, the GI50 was 4.88 µM in the experiment on OVCAR-4 ovarian, 14.7 µM in the experiment on OVCAR-8 ovarian and 13.6 µM in the experiment with SK-MEL-2 melanoma. Also, the TGI in the experiment on A549 NSCLC was 31.3 µM; in the experiment with EKVX NSCLC, 21.6 µM; in the experiment on HS 578T breast it was 31.4 µM; in the experiment on M14 melanoma, 27.4 µM; in the experiment with MOLT-4 leukemia, 24.6 µM; in the experiment on NCI-H522 lung it was 31.4 µM. Moreover, the TGI in the experiment on OVCAR-4 ovarian came to 21.3 µM; in the experiment with OVCAR-8 ovarian it was 31.8 µM; in the experiment with SK-MEL-2 melanoma, 29 µM.
With `OCC(O)C(O)C(O)/C=N/Nc1nc2ccccc2nc1-c1ccccc1` (stereo not given), the GI50 in the experiment on A549 NSCLC is more than 100 µM; with EKVX NSCLC, more than 100 µM; with HS 578T breast, 83.6 µM; in the experiment on M14 melanoma, more than 100 µM; with NCI-H522 lung, 72.7 µM; with OVCAR-4 ovarian, 28.3 µM. The GI50 in the experiment on OVCAR-8 ovarian is 91.1 µM; with SK-MEL-2 melanoma, more than 100 µM; with SK-OV-3 ovarian, more than 100 µM. The TGI was more than 100 µM in the experiment on A549 NSCLC; more than 100 µM with EKVX NSCLC; more than 100 µM in the experiment with HS 578T breast; more than 100 µM with M14 melanoma; more than 100 µM in the experiment with NCI-H522 lung; 72.2 µM in the experiment on OVCAR-4 ovarian. Further, the TGI in the experiment with OVCAR-8 ovarian, in the experiment with SK-MEL-2 melanoma and with SK-OV-3 ovarian was more than 100 µM throughout.
With `COc1ccc2c(c1)/C(=C/c1cc(OC)c(OC)c(OC)c1)C(=O)N2C`, the GI50 with A549 NSCLC is 3.64 µM; with EKVX NSCLC, 5.1 µM; in the experiment on HS 578T breast, 1.43 µM; in the experiment on MOLT-4 leukemia it was 1.89 µM; in the experiment on NCI-H522 lung, 2.24 µM; in the experiment on OVCAR-4 ovarian, 4.66 µM. Moreover, the GI50 in the experiment with OVCAR-8 ovarian was 4.21 µM; with SK-MEL-2 melanoma it was 3.29 µM; in the experiment with SK-OV-3 ovarian, 3.2 µM. The TGI in the experiment on A549 NSCLC was more than 67.1 µM; with EKVX NSCLC, more than 100 µM; in the experiment with HS 578T breast it was 4.61 µM; with MOLT-4 leukemia, 7.56 µM; in the experiment on NCI-H522 lung, 6.39 µM; with OVCAR-4 ovarian, more than 77.5 µM. For the same compound, the TGI was more than 74.8 µM in the experiment on OVCAR-8 ovarian, 7.41 µM in the experiment on SK-MEL-2 melanoma and 12.5 µM in the experiment with SK-OV-3 ovarian.
With `O=C1CS/C(=N\S(=O)(=O)c2ccc(N3N=C4c5ccccc5CC4C3c3ccc(Cl)cc3)cc2)N1c1ccccc1` (stereo not given), the GI50 is 24.2 µM with A549 NSCLC; 43.2 µM in the experiment with EKVX NSCLC; 29.4 µM in the experiment with HS 578T breast; 59.4 µM in the experiment with M14 melanoma; 17.2 µM in the experiment with MOLT-4 leukemia; 36.7 µM in the experiment on NCI-H522 lung. Besides, the GI50 is 34.6 µM in the experiment with OVCAR-8 ovarian, more than 100 µM with SK-MEL-2 melanoma and 31.4 µM with SK-OV-3 ovarian. Also, the TGI in the experiment on A549 NSCLC was 65.8 µM; with EKVX NSCLC it was more than 100 µM; in the experiment on HS 578T breast, 87.4 µM; in the experiment on M14 melanoma it was more than 100 µM; in the experiment on MOLT-4 leukemia, 40.7 µM; in the experiment with NCI-H522 lung it was more than 100 µM. Besides, the TGI was more than 100 µM in the experiment on OVCAR-8 ovarian, more than 100 µM with SK-MEL-2 melanoma and 95.2 µM in the experiment on SK-OV-3 ovarian.
Regarding `Cc1cc(=O)oc2cc(OS(C)(=O)=O)ccc12`, the TGI in the experiment on A549 NSCLC, with EKVX NSCLC, in the experiment on HS 578T breast, in the experiment on M14 melanoma, in the experiment with NCI-H522 lung and in the experiment with OVCAR-4 ovarian was more than 100 µM each time. In addition, the TGI in the experiment on OVCAR-8 ovarian and with SK-MEL-2 melanoma was more than 100 µM each time.

The values are drawn from PubChem BioAssay (NCI).
